Measurements from US10889569B2, “Condensed ring group azacyclobutyl triazole derivative, preparation method therefor and use thereof in medicine” (Jiangsu Hengrui Medicine Co., Ltd., priority 2016, dated 2021).

Experiments:
Assay type in all cases: cell-based
human V1bR = human V1bR (Homo sapiens, UniProt P47901); experiment: Inhibition activity on human V1bR (Fluo-4 calcium assay, HEK293/human V1bR pool cells); details: vasopressin 3 nM
Description: The inhibition effect of the compounds of the present invention on the activity of human V1bR protein expressed in HEK293/human V1bR cells was determined by the following experimental method:
The pcDNA3.1-V1bR plasmid was transferred into HEK293 cells with the Lipofectamine® 3000 transfection reagent; G418 was added on the next day, and the HEK293/human V1bR pool cell lines were obtained.
(§1) HEK293/human V1bR pool cells were inoculated in a 96-well plate with an inoculation density of 25,000 cells/well one day in advance. On the next day, a loading buffer containing Fluo-4 dye was formulated using the reagents in the Fluo-4 NW calcium assay kit, and the culture medium was then removed; 100 μl of the loading buffer containing Fluo-4 dye were added to each well, and the plate was incubated at 37° C. for 30 minutes. After that, the plate was moved to room temperature and equilibrated for 10 minutes. The compounds were formulated into 10^6, 10^5, 10^4, 10^3, 10^2 and 10^1 nM. 1 μl of the compounds in each concentration was added to each well, and the plate was incubated at room temperature for 10 minutes. 50 μl of vasopressin polypeptide (3 nM) were automatically added by the machine, and the values were immediately detected at 494/516 nM by the flexstation 3 microplate reader. IC50 values of the compounds were calculated by Graphpad prism software using fluorescence signals corresponding to different concentrations.
The inhibition activity of the compounds of the present invention on human V1bR was determined by the above test, and the obtained IC50 values are shown in Table 3.

human V1aR = human V1aR (Homo sapiens (Human), UniProt P37288); experiment: Inhibition activity on human V1aR (Fluo-4 calcium assay, HEK293/human V1aR stably transfected cells); details: vasopressin 3 nM
Description: The inhibition effect of the compounds of the present invention on the activity of human V1 aR protein expressed in HEK293/human V1aR stably transfected cells was determined by the following experimental method:
The pcDNA3.1-V1aR plasmid was transferred into HEK293 cells with the Lipofectamine® 3000 transfection reagent; G418 was added on the next day to screen, and monoclonal cell lines were selected.
as §1, with “V1aR stably transfected” for “V1bR pool”, “at” for “into”
The inhibition activity of the compounds of the present invention on human V1aR was determined by the above test, and the obtained IC50 values are shown in Table 2.

human V2R = human V2R (Homo sapiens (Human), UniProt P30518); experiment: Inhibition activity on human V2R (cAMP HTRF assay, HEK293/human V2R pool cells); details: vasopressin
Description: The inhibition effect of the compounds of the present invention on the activity of human V2R protein expressed in HEK293/human V2R cells was determined by the following experimental method:
The pcDNA3.1-V2R plasmid was transferred into HEK293 cells with the Lipofectamine® 3000 transfection reagent; G418 was added on the next day, and the HEK293/human V2R pool cell lines were obtained.
HEK293/human V2R pool cells were dissociated with the cell dissociation solution (enzyme-free), thereby dissociating the cells from the cell culture dish into individual cells. Then the cell solution was blown well, and centrifuged to remove the supernatant. The cells were resuspended in the test buffer 1 (1×HBSS+20 mM HEPES+0.1% BSA) and counted. The cell density was adjusted to 1250 cells/5 μl, i.e., 2.5*10^5/ml.
The compounds were formulated into a series of concentrations of 20 mM, 6.67 mM, 2.22 mM, 0.74 mM, 0.25 mM, 0.08 mM, 27.4 μM, 9.14 μM, 3.05 μM, 1.02 μM, 0.34 μM and 0 μM (DMSO) with pure DMSO. The compounds were then diluted into a 4-fold working concentration solution with the test buffer 2 (test buffer 1+1 mM IBMX).
Agonist: 460 μM vasopressin was used as the mother liquor, which was formulated at 2 μM with DMSO, and then diluted to 0.5 nM with the test buffer 2.
Standards: The first point was 20 μl of a stock solution (2848 nM), which was diluted successively to a total of eleven concentrations in a 4-fold concentration gradient with the test buffer 1 from the second point.
1. The well-mixed cells were added to a 384-well plate (5 μl/well) without changing the tip.
2. The test compounds and positive compound formulated were added (2.5 μl/well), and the tips were changed.
3. The plate was centrifuged at 1000 rpm for 1 min, shaken for 30 sec to mix well, and incubated at room temperature for 30 min.
4. The standard curve wells were added with the test buffer 2 (5 μl/well).
5. The formulated agonist was added (2.5 μl/well), and the tips were changed; the plate was centrifuged at 1000 rpm for 1 min, shaken for 30 sec to mix well, and incubated at room temperature for 30 min.
6. cAMP-d2 (a component in the cAMP dynamic 2 kit) and Anti-cAMP-Eu-Cryptate (a component in the cAMP dynamic 2 kit) were formulated in the dark, which were then mixed well with cAMP lysate (a component in the cAMP dynamic 2 kit) in a ratio of 1:4. Each well was added with the formulated cAMP-d2 solution (5 μl/well), followed by addition of Anti-cAMP-Eu-Cryptate (5 μl/well). The plate was shaken for 30 sec to mix well, and incubated in the dark at room temperature for 1 h.
The HTRF Signals were Read by the PheraStar Multi-Function Microplate Reader.
The data in this test was processed using the data processing software Graphpad Prism.
The inhibition activity of the compounds of the present invention on human V2R was determined by the above test, and the IC50 values obtained are shown in Table 4.

human OTR = human OTR (Homo sapiens, UniProt P30559); experiment: Inhibition activity on human OTR (Fluo-4 calcium assay, HEK293/human OTR stably transfected cells); details: oxytocin 3 nM
Description: The inhibition effect of the compounds of the present invention on the activity of human OTR protein expressed in HEK293/human OTR stably transfected cells was determined by the following experimental method:
The pcDNA3.1-hOTR plasmid was transferred into HEK293 cells with the Lipofectamine® 3000 transfection reagent; G418 was added on the next day to screen, and monoclonal cell lines were selected.
as §1, with “OTR stably transfected” for “V1bR pool”, “at” for “into”, “oxytocin” for “vasopressin”
The inhibition activity of the compounds of the present invention on human OTR was determined by the above test, and the obtained IC50 values are shown in Table 1.

Chain of human V1aR (P37288 whole entry): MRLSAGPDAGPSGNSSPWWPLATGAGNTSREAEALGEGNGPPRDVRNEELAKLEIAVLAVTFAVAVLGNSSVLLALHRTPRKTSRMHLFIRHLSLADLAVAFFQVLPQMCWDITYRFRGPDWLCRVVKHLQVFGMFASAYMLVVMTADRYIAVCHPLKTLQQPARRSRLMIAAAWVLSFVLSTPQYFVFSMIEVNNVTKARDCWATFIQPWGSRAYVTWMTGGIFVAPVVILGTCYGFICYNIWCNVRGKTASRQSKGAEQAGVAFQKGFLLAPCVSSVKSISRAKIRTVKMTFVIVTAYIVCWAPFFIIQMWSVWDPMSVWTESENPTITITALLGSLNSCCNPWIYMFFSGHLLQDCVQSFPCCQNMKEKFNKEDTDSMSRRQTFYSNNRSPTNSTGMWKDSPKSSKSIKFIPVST
Chain of human V2R (P30518 whole entry): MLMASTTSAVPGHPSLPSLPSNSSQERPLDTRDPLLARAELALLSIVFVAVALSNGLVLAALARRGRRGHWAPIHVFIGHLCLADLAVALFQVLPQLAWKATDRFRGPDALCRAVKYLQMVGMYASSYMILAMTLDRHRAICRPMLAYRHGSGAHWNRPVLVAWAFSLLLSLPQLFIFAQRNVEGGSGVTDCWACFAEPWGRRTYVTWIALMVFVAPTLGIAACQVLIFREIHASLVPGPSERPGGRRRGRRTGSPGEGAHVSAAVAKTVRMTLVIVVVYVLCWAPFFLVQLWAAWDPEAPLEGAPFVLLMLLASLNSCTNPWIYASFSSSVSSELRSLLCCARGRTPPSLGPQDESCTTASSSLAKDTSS

## COCc1nnc(N2CC(n3cc(Cl)c4cc(F)ccc43)C2)n1-c1ccc(OC)nc1 [Example 10, 3-Chloro-5-fluoro-1-(1-(5-(methoxymethyl)-4-(6-methoxypyridin-3-yl)-4H-1,2,4-triazol-3-yl)azetidin-3-yl)-1H-indole]
Human V1bR
  IC50: 12.4 µM
Human V1aR
  IC50: 5.7 µM
Human V2R
  IC50: 20.7 µM
Human OTR
  IC50: 0.091 µM

## COCc1nnc(N2CC(c3cn(C)c4cc(F)ccc34)C2)n1-c1ccc(OC)nc1 [Example 14, 6-Fluoro-3-(1-(5-(methoxymethyl)-4-(6-methoxypyridin-3-yl)-4H-1,2,4-triazol-3-yl)azetidin-3-yl)-1-methyl-1H-indole]
Human V1bR
  IC50: 25.8 µM
Human V1aR
  IC50: 10.9 µM
Human V2R
  IC50: 11.8 µM
Human OTR
  IC50: 0.13 µM

## COCc1nnc(N2CC(C3CCOc4cc(F)ccc43)C2)n1-c1ccc(OC)nc1 (stereo not shown) [Example 21, 5-(3-(3-(7-Fluorobenzodihydropyran-4-yl)azetidin-1-yl)-5-(methoxymethyl)-4H-1,2,4-triazol-4-yl)-2-methoxypyridine]
Human V1bR
  IC50: 38.8 µM
Human V1aR
  IC50: 2.7 µM
Human V2R
  IC50: 17.3 µM
Human OTR
  IC50: 0.025 µM

## COCc1nnc(N2CC(N3CCOc4cc(F)ccc43)C2)n1-c1ccc(OC)nc1 [Example 24, 7-Fluoro-4-(1-(5-(methoxymethyl)-4-(6-methoxypyridin-3-yl)-4H-1,2,4-triazol-3-yl)azetidin-3-yl)-3,4-dihydro-2H-benzo[b][1,4]oxazine]
Human V1bR
  IC50: 44.1 µM
Human V1aR
  IC50: 10.7 µM
Human V2R
  IC50: 67.2 µM
Human OTR
  IC50: 0.1 µM

## COc1ccc(-n2c(C)nnc2N2CC(N3CCCc4cc(F)ccc43)C2)cn1 [Example 29, 6-Fluoro-1-(1-(4-(6-methoxypyridin-3-yl)-5-methyl-4H-1,2,4-triazol-3-yl)azetidin-3-yl)-1,2,3,4-tetrahydroquinoline]
Human V1bR
  IC50: 95.1 µM
Human V1aR
  IC50: 6.2 µM
Human V2R
  IC50: 12.1 µM
Human OTR
  IC50: 0.064 µM

## COCc1nnc(N2CC(N3CCCc4cc(F)ccc43)C2)n1-c1ccc(OC)nc1 [Example 30, 6-Fluoro-1-(1-(5-(methoxymethyl)-4-(6-methoxypyridin-3-yl)-4H-1,2,4-triazol-3-yl)azetidin-3-yl)-1,2,3,4-tetrahydroquinoline]
Human V1bR
  IC50: 20.7 µM
Human V1aR
  IC50: 8.5 µM
Human V2R
  IC50: 6.7 µM
Human OTR
  IC50: 0.004 µM

## CCOCc1nnc(N2CC(N3CCOc4cc(F)ccc43)C2)n1-c1ccc(OC)nc1 [Example 31, 4-(1-(5-(Ethoxymethyl)-4-(6-methoxypyridin-3-yl)-4H-1,2,4-triazol-3-yl)azetidin-3-yl)-7-fluoro-3,4-dihydro-2H-benzo[b][1,4]oxazine]
Human V1bR
  IC50: 54.5 µM
Human V1aR
  IC50: 3.5 µM
Human V2R
  IC50: 5.8 µM
Human OTR
  IC50: 0.079 µM
